According to patent US9650361B2, “N-(pyridin-2-yl)pyrimidin-4-amine derivatives containing a sulfoximine group” (BAYER PHARAM AKTIENGESELLSCHAFT, priority 2012, dated 2017):
Where two headings read alike, the source gives them in different places.

Key:
[1] = system: MOLM-13 cells; assay: Proliferation assay, MOLM-13 (Method 3); assay type: cell-based, human; conditions: 72-hour exposure, Cell Titre-Glo, read-out: Inhibition of MOLM 13 cell proliferation IC50
Method: Non-adherent MOLM-13 human acute myeloid leukemia cells (DSMZ ACC 554) were seeded at a density of 5,000 cells/well in a 96-well multititer plate in 100 μL of growth medium supplemented 10% fetal calf serum. After 24 hours, cell viability of one plate (zero-point plate) was determined with the Cell Titre-Glo Luminescent Cell Viability Assay (Promega), while 50 μl of test compound containing medium was added to the wells of the other plates (final concentrations in the range of 0.001-10 μM and DMSO controls; the final concentration of the solvent dimethyl sulfoxide was 0.5%). Cell viability was assessed after 72-hour exposure with the Cell Titre-Glo Luminescent Cell Viability Assay (Promega). IC50 values (inhibitory concentration at 50% of maximal effect) were determined by means of a 4 parameter fit on measurement data which were normalized to vehicle (DMSO) treated cells (=100%) and measurement readings taken immediately before compound exposure (=0%).

[2] = system: DU145 cells; assay: Proliferation assay, DU145 (Method 3); assay type: cell-based, human; conditions: 4 days, crystal violet, read-out: Inhibition of DU145 cell proliferation IC50
Method: Cultivated tumour cells (HeLa, human cervical tumour cells, ATCC CCL-2; NCI-H460, human non-small cell lung carcinoma cells, ATCC HTB-177; A2780, human ovarian carcinoma cells, ECACC #93112519; DU 145, hormone-independent human prostate carcinoma cells, ATCC HTB-81; HeLa-MaTu-ADR, multidrug-resistant human cervical carcinoma cells, EPO-GmbH Berlin; Caco-2, human colorectal carcinoma cells, ATCC HTB-37; B16F10, mouse melanoma cells, ATCC CRL-6475) were plated at a density of 5,000 cells/well (DU145, HeLa-MaTu-ADR), 3,000 cells/well (NCI-H460, HeLa), 2,500 cells/well (A2780), 1,500 cells/well (Caco-2), or 1,000 cells/well (B16F10) in a 96-well multititer plate in 200 μL of their respective growth medium supplemented 10% fetal calf serum. After 24 hours, the cells of one plate (zero-point plate) were stained with crystal violet (see below), while the medium of the other plates was replaced by fresh culture medium (200 μl), to which the test substances were added in various concentrations (0 μM, as well as in the range of 0.001-10 μM; the final concentration of the solvent dimethyl sulfoxide was 0.5%). The cells were incubated for 4 days in the presence of test substances. Cell proliferation was determined by staining the cells with crystal violet: the cells were fixed by adding 20 μl/measuring point of an 11% glutaric aldehyde solution for 15 minutes at room temperature. After three washing cycles of the fixed cells with water, the plates were dried at room temperature. The cells were stained by adding 100 μl/measuring point of a 0.1% crystal violet solution (pH 3.0). After three washing cycles of the stained cells with water, the plates were dried at room temperature. The dye was dissolved by adding 100 μl/measuring point of a 10% acetic acid solution. The extinction was determined by photometry at a wavelength of 595 nm. The change of cell number, in percent, was calculated by normalization of the measured values to the extinction values of the zero-point plate (=0%) and the extinction of the untreated (0 μm) cells (=100%). The IC50 values (inhibitory concentration at 50% of maximal effect) were determined by means of a 4 parameter fit.

[3] = target: T1, CDK2/CycE (Homo sapiens, UniProt P24941); assay: CDK2/CycE high ATP kinase assay (Method 2b); assay type: biochemical; conditions: 2 mM ATP
T1 construct: GST; purchased ProQinase GmbH (Freiburg, Germany); host or cells: insect cells (Sf9)
Method: 2b. CDK2/CycE High ATP Kinase Assay:
CDK2/CycE-inhibitory activity of compounds of the present invention at 2 mM adenosine-tri-phosphate (ATP) was quantified employing the CDK2/CycE TR-FRET (TR-FRET=Time Resolved Fluorescence Energy Transfer) assay as described in the following paragraphs.
Recombinant fusion proteins of GST and human CDK2 and of GST and human CycE, expressed in insect cells (Sf9) and purified by Glutathion-Sepharose affinity chromatography, were purchase from ProQinase GmbH (Freiburg, Germany) As substrate for the kinase reaction biotinylated peptide biotin-Ttds-YISPLKSPYKISEG (C-terminus in amid form) was used which can be purchased e.g. form the company JERINI peptide technologies (Berlin, Germany).
For the assay 50 nl of a 100 fold concentrated solution of the test compound in DMSO was pipetted into a black low volume 384 well microtiter plate (Greiner Bio-One, Frickenhausen, Germany), 2 μl of a solution of CDK2/CycE in aqueous assay buffer [50 mM Tris/HCl pH 8.0, 10 mM MgCl2, 1.0 mM dithiothreitol, 0.1 mM sodium ortho-vanadate, 0.01% (v/v) Nonidet-P40 (Sigma)] were added and the mixture was incubated for 15 min at 22° C. to allow pre-binding of the test compounds to the enzyme before the start of the kinase reaction. Then the kinase reaction was started by the addition of 3 μl of a solution ATP (3.33 mM=>final conc. in the 5 μl assay volume is 2 mM) and substrate (1.25 μM=>final conc. in the 5 μl assay volume is 0.75 μM) in assay buffer and the resulting mixture was incubated for a reaction time of 25 min at 22° C. The concentration of CDK2/CycE was adjusted depending of the activity of the enzyme lot and was chosen appropriate to have the assay in the linear range, typical concentrations were in the range of 15 ng/ml. The reaction was stopped by the addition of 5 μl of a solution of TR-FRET detection reagents (0.2 μM streptavidine-XL665 [Cisbio Bioassays, Codolet, France] and 1 nM anti-RB(pSer807/pSer811)-antibody from BD Pharmingen [#558389] and 1.2 nM LANCE EU-W1024 labeled anti-mouse IgG antibody [Perkin-Elmer, product no. AD0077, as an alternative a Terbium-cryptate-labeled anti-mouse IgG antibody from Cisbio Bioassays can be used]) in an aqueous EDTA-solution (100 mM EDTA, 0.2% (w/v) bovine serum albumin in 100 mM HEPES/NaOH pH 7.0).
The resulting mixture was incubated 1 h at 22° C. to allow the formation of complex between the phosphorylated biotinylated peptide and the detection reagents. Subsequently the amount of phosphorylated substrate was evaluated by measurement of the resonance energy transfer from the Eu-chelate to the streptavidine-XL. Therefore, the fluorescence emissions at 620 nm and 665 nm after excitation at 350 nm were measured in a TR-FRET reader, e.g. a Rubystar (BMG Labtechnologies, Offenburg, Germany) or a Viewlux (Perkin-Elmer). The ratio of the emissions at 665 nm and at […] was taken as the measure for the amount of phosphorylated substrate. The data were normalised (enzyme reaction without inhibitor=0% inhibition, all other assay components but no enzyme=100% inhibition).

SMILES	IC50 ([1]; Homo sapiens, MOLM-13, 72 h) [nM]	IC50 ([2]; Homo sapiens, DU-145, 96 h) [nM]	IC50 [3] [nM]	IC50 [1] [nM]	IC50 [2] [nM]
COc1cc(F)ccc1-c1cc(Nc2cc(CS(C)(=N)=O)cc(C)n2)ncn1 (single isomer, unassigned) [Example 8, 6-(4-Fluoro-2-methoxyphenyl)-N-{6-methyl-4-[(S-methylsulfonimidoyl)methyl]pyridin-2-yl}pyrimidin-4-amine]	64	179	6330	–	–
COc1cc(F)ccc1-c1cc(Nc2cc(CS(C)(=N)=O)cc(Cl)n2)ncn1 (single isomer, unassigned) [Example 5, N-{6-Chloro-4-[(S-methylsulfonimidoyl)methyl]pyridin-2-yl}-6-(4-fluoro-2-methoxyphenyl)pyrimidin-4-amine]	33	105	1420	–	–
COc1cc(F)ccc1-c1cc(Nc2cc(CS(C)(=N)=O)ccn2)ncn1 (single isomer, unassigned) [Example 3, 6-(4-Fluoro-2-methoxyphenyl)-N-{4-[(S-methylsulfonimidoyl)methyl]pyridin-2-yl}pyrimidin-4-amine]	–	–	1040	80	–
COc1cc(F)ccc1-c1cc(Nc2cc(CS(C)(=N)=O)cc(Cl)n2)ncn1 (racemic) [Example 4, (rac)-N-{6-Chloro-4-[(S-methylsulfonimidoyl)methyl]pyridin-2-yl}-6-(4-fluoro-2-methoxyphenyl)pyrimidin-4-amine]	47	77	1130	–	–
COc1cc(F)ccc1-c1cc(Nc2cc(CS(C)(=N)=O)cc(C)n2)ncn1 (single isomer, unassigned) [Example 9, 6-(4-Fluoro-2-methoxyphenyl)-N-{6-methyl-4-[(S-methylsulfonimidoyl)methyl]pyridin-2-yl}pyrimidin-4-amine]	–	–	4400	43	126
COc1cc(F)ccc1-c1cc(Nc2cc(CS(C)(=N)=O)cc(Cl)n2)ncn1 (single isomer, unassigned) [Example 6, N-{6-Chloro-4-[(S-methylsulfonimidoyl)methyl]pyridin-2-yl}-6-(4-fluoro-2-methoxyphenyl)pyrimidin-4-amine]	–	–	1820	44	110
COc1cc(F)ccc1-c1cc(Nc2cc(CS(C)(=N)=O)cc(C(F)(F)F)n2)ncn1 (racemic) [Example 10, (rac)-6-(4-Fluoro-2-methoxyphenyl)-N-{4-[(S-methylsulfonimidoyl)methyl]-6-(trifluoromethyl)pyridin-2-yl}pyrimidin-4-amine]	32	88	797	–	–
COc1cc(F)ccc1-c1cc(Nc2cc(CS(C)(=N)=O)ccn2)ncn1 (single isomer, unassigned) [Example 2, 6-(4-Fluoro-2-methoxyphenyl)-N-{4-[(S-methylsulfonimidoyl)methyl]pyridin-2-yl}pyrimidin-4-amine]	–	–	1540	189	–
COc1cc(F)ccc1-c1cc(Nc2cc(CS(C)(=N)=O)cc(C)n2)ncn1 (racemic) [Example 7, (rac)-6-(4-Fluoro-2-methoxyphenyl)-N-{6-methyl-4-[(S-methylsulfonimidoyl)methyl]pyridin-2-yl}pyrimidin-4-amine]	53	121	3630	–	–
COc1cc(F)ccc1-c1cc(Nc2cc(CS(C)(=N)=O)ccn2)ncn1 (racemic) [Example 1, (rac)-6-(4-Fluoro-2-methoxyphenyl)-N-{4-[(S-methylsulfonimidoyl)methyl]pyridin-2-yl}pyrimidin-4-amine]	–	309	1510	–	–
